Experimental data taken from patent publication US20230157993A1, “PHARMACEUTICAL COMPOSITION FOR TREATING OR PREVENTING ALOPECIA INCLUDING DECURSIN” (University-Industry Cooperation Group of Kyung Hee …, priority 2021, published 2023).

Columns and labels:
[1] = system: hair follicles of dorsal skin tissues; test: Histological analysis (H&E) of dorsal skin hair follicles in CYP-induced alopecia mice; type: in vivo, C57BL/6J mice; conditions: topical decursin, FIG. 2
Experimental: (§1) All animal testing procedures were approved by the Laboratory Animal Care and Use Committee of Kyung Hee University (KHUASP(SE)-13-046). 5-week-old male C57BL/6J mice were purchased from Raonbio Co., Ltd. (Yongin, Korea). All mice were kept in plastic cages at 22±1° C. under 50±5% humidity with 12 hours of light-dark cycles. After 1 week of adaptation, mice were randomly assigned to 6 groups: (1) CTR, normal control group, (2) CYP, cyclophosphamide-induced alopecia group, (3) DEX, dexamethasone (DEX) treated in CYP-induced alopecia mice as positive controls, (4) D1, 1 μM decursin treated in CYP-induced alopecia mice, (5) D10, 10 μM decursin treated in CYP-induced alopecia mice, and (6) D100, 100 μM decursin treated in CYP-induced alopecia mice.
(§2) To synchronize the phases of the hair growth cycle, the dark hairs on the dorsal skin of all mice except the CTR group were shaved on day 0 using a shaving cream. 9 days later, 150 mg/kg of CYP (Sigma-Aldrich, MO, USA) was dissolved in saline and injected one time intraperitoneally into all mice except the CTR group. Injection of CYP induced the stage of hair follicles to turn into dystrophic catagen. From day 9 to day 16, 100 μL of 1, 10 and 100 μM decursin (Sigma-Aldrich) in saline containing 0.1% dimethyl sulfoxide was topically treated onto the shaved dorsal skin once a day. […]

caspase-3 = test: Immunoblotting of caspase-3 in TNF-α-stimulated HaCaT keratinocytes; type: cell-based, Human; conditions: HaCaT cells; 10 nM decursin; 100 ng/mL TNF-α, 24 hours; FIG. 5
Experimental: (§3) Human keratinocyte HaCaT cells were grown at 37° C. under atmosphere with 95% humidity in the presence of 5% CO2, in Dulbecco's modified Eagle's medium (DMEM, Gibco; Thermo Fisher Scientific, Inc., Waltham, Mass., USA) supplemented with 10% v/v fetal bovine serum (FBS, Gibco), 2 mM glutamine, 100 IU/ml penicillin, and 100 μg/mL of streptomycin (Gibco). HaCaT cells were dispensed into 6-well plates by 1×10^6 cells/wells. After stabilization, 1 μM DEX and 0.1, 1, and 10 nM decursin were treated in the presence of 100 ng/mL of TNF-α for 24 hours.
(§4) Proteins were extracted from the collected skin tissues and HaCaT cells using RIPA lysis buffer (Tech & Innovation, Gangwon, Korea) containing a protease inhibitor cocktail (Roche, Hoffmann, USA). Lysates were quantified by the Bradford method and denatured with dodecyl sulfate buffer at 98° C. for 5 minutes. Proteins were electrophoresed onto a polyvinylidene fluoride membrane. The membranes were incubated continuously with primary anti-caspase-3, -7, and -8, followed with secondary HRP-conjugated anti-rabbit and anti-mouse antibodies.

p38 = test: Expression of p38 in decursin-treated keratinocytes; type: cell-based, Human; conditions: TNF-α
caspase-8 = test: Immunoblotting of caspase-8 in TNF-α-stimulated HaCaT keratinocytes; type: cell-based, Human; conditions: HaCaT cells; 10 nM decursin; 100 ng/mL TNF-α, 24 hours; FIG. 5
Experimental: as §3, §4

[2] = system: keratinocyte growth factor (KGF); test: Immunofluorescence assay of KGF+ expression in dorsal skin tissue of CYP-induced alopecia mice; type: in vivo, C57BL/6J mice; conditions: CIA mice, FIG. 3
Experimental: as §1
To synchronize the phases of the hair growth cycle, the dark hairs on the dorsal skin of all mice except the CTR group were shaved on day 0 using a shaving cream. 9 days later, 150 mg/kg of CYP (Sigma-Aldrich, MO, USA) was dissolved in saline and injected one time intraperitoneally into all mice except the CTR group. Injection of CYP induced the stage of hair follicles to turn into dystrophic catagen. From day 9 to day 16, 100 μL of 1, 10 and 100 μM decursin (Sigma-Aldrich) in saline containing 0.1% dimethyl sulfoxide was topically treated onto the shaved dorsal skin once a day. As a positive control, 0.1% DEX was administered topically to the shaved area on days 1, 3, 5, 7, and 9 to 16. Physiological saline was treated to the CTR and CYP groups during the experiment. […] on day 17, all mice were sacrificed under anesthesia.
Paraffin tissue sections were hydrated with xylene and ethanol, followed by blocking with 1% bovine serum albumin (BSA). The slides were incubated overnight at 4° C. with primary anti-rabbit keratinocyte growth factor (KGF) antibody. Secondary HRP-conjugated fluorescent antibody was treated onto tissue slides for 1 hour at room temperature.

[3] = system: keratinocyte growth factor (KGF); test: Immunoblotting of KGF protein expression in skin tissues of CYP-induced alopecia mice; type: in vivo, C57BL/6J mice; conditions: CIA mice; 100 μM decursin topical; FIG. 4
AKT = test: Expression of AKT in decursin-treated keratinocytes; type: cell-based, Human; conditions: TNF-α
[4] = system: CYP-induced alopecia mice; test: Skin monitoring of hair growth with a digital dermatoscope in CYP-induced alopecia mice; type: in vivo, C57BL/6J mice; conditions: topical, all concentrations of decursin (1, 10, 100 μM) or 0.1% DEX, FIG. 1
Experimental: as §1, §2

ERK = test: Expression of ERK in decursin-treated keratinocytes; type: cell-based, Human; conditions: TNF-α
PI3K = test: Expression of PI3K in decursin-treated keratinocytes; type: cell-based, Human; conditions: TNF-α
caspase-7 = test: Immunoblotting of caspase-7 in TNF-α-stimulated HaCaT keratinocytes; type: cell-based, Human; conditions: HaCaT cells; 10 nM decursin; 100 ng/mL TNF-α, 24 hours; FIG. 5
Experimental: as §3, §4

## CC(C)=CC(=O)O[C@H]1Cc2cc3ccc(=O)oc3cc2OC1(C)C [decursin]
[1]
  hair follicle cycle stage (histology): hair follicles were in the anagen
  shape of the ampulla of hair follicles, compared to CYP group: normalized
caspase-3
  rate of decrease of TNF-α-induced caspase-3 protein level: 30.41%
p38
  expression of p38: suppression
caspase-8
  rate of decrease of TNF-α-induced caspase-8 protein level: 41.07%
[2]; 1 μM decursin topical
  KGF+ expression in the skin tissue (immunofluorescence): increased
[2]; 10 μM decursin topical
  KGF+ expression in the skin tissue (immunofluorescence): increased
[2]; 100 μM decursin topical
  KGF+ expression in the skin tissue (immunofluorescence): increased
[3]
  protein expression of KGF in skin tissues: significantly increased
AKT
  expression of AKT: suppression
[4]
  hair growth on the dorsal side (dermatoscope), compared to CYP group: hair growth was observed
ERK
  expression of ERK: suppression
PI3K
  expression of PI3K: suppression
caspase-7
  rate of decrease of TNF-α-induced caspase-7 protein level: 48.27%
